“Also recorded” adds a separate entry of the source.

The subject of data set [1] is bovine REC. Briefly: Secondary sprouting assay on reconstituted basement membrane matrix (MTS). The class given is cell-based. As for the experimental part:
(§1) In vitro MATRIGEL™ biological cell culture substrate assay of capillary-like tube formation and secondary sprouting. […] Briefly, 50 μL of reconstituted basement membrane matrix from mouse EHS tumor (BD or GFR MATRIGEL™ biological cell culture substrate; Becton Dickinson Labware, Bedford, Mass.) were dispensed with frozen pipettes into each well of a previously frozen, sterile 96-well plate sitting on wet ice and allowed to solidify for 1 hr at room temperature or 37° C. Approximately 5×10^4 or 7.5×10^4 REC in a 100 μL volume were seeded into each triplicate well. Human recombinant or purified growth factors were added to a final concentration of 10 ng/mL (or as noted) in 0.5% FCS incomplete BREC medium. Capillary-like tube structures formed by REC on reconstituted basement membrane matrix were photographed at various intervals ranging from 12–72 hr; pictures were scanned, digitized and analyzed using image-processing software.
For the secondary sprouting assay, cells on reconstituted basement membrane matrix were seeded as above but incubated in 0.5% FCS incomplete BREC medium without any growth factors for 3 days, allowing for tube formation and collapse. On day 3, human recombinant or purified growth factors were added to a final concentration of 10 ng/mL (or as noted) in low-serum incomplete BREC medium and incubated for another 5–6 days. Digital photographs were obtained with a Kodak MDS 100 camera attached to a Leitz DM IL inverted microscope. Digitized images obtained with a Kodak MDS 100 video camera were stored on compact discs and quantified with NIH Image 1.62 software. The number of living cells in the sprouting colonies were determined using the MTS cell proliferation assay.
A good correlation was observed between the spherical volume and the number of live cells in secondary sprouting colonies (not shown). Since the latter is an easy parameter to test by using the MTS assay, it was adopted as a faster method for studying the effect of various agents on secondary sprouting.

Data set [2] has as its system bovine REC. The data set can be described thus: Migration (wound healing) assay. The data set is classed as cell-based. As for the experimental part: Migration assay. REC migration rates were examined in a wound healing assay, where cells migrate over time into the scrape wound in a monolayer. Briefly, cells were seeded in 24-well plates and allowed to reach confluence in growth medium. Prior to growth factor treatment, cells were serum-starved overnight in incomplete BREC medium with 0.5% FCS. All monolayers within an experiment were wounded with a single sterile wood stick of constant diameter, to ensure uniformity in the wound areas among different treatments. Wounded monolayers were then rinsed with low-serum medium to remove detached cells and treated with various combinations of human growth factors at 10 ng/mL each. On day 7, cells were rinsed 3× with PBS and fixed with methanol for 15 min, rehydrated with dH2O and stained with Meyer's hematoxylin for 5 min, followed by destaining with dH2O. All wells were photographed with a 4× or 10× objective using a Kodak MDS 100 digital camera attached to a Leitz DM IL inverted microscope. The original wound area was measured at 0 hr and used as a baseline for comparison to the treated wells at the conclusion of the experiment. The number of cells migrated into the wound was determined. Migrating cell counting was automated using the AAB (Advanced American Biotechnology, Fullerton, Calif.) software. Data were calculated and statistically analyzed (Spirin K S et al., Basement membrane and growth factor gene expression in normal and diabetic human retinas, Curr. Eye Res. 18:490–499 [1999]) relative to control cultures that received the same concentrations of bovine serum albumin instead of growth factors and/or inhibitor, compared to vehicle instead of inhibitor after wounding. Inhibitors were added 30 min before growth factors.

The nature of data set [3]: Solubility of emodin in injection vehicle. The data set is classed as physicochemical. The note with it: phosphate-buffered saline with 20% PEG 400 + 2% Tween-80, pH 7.2. As for the experimental part: A minimum of 5 mouse pups were used per group. Emodin at 20–30 μg/g of body mass (or 10 μl/g) was prepared as a solution (70% ethanol) or suspension (PEG-Tween) in vehicle. Vehicle (“emodin solvent”) was 70% ethanol in initial experiments. In three later experiments, phosphate-buffered saline with 20% polyethylene glycol 400 (PEG 400)+2% Tween-80, pH 7.2, was used as vehicle.

The test system of a further data set is REC. Briefly: Capillary-like tube formation on MATRIGEL
The class given is cell-based, bovine. Here is the method: as §1

The test system of data set [4] is retinal neovascularization. Briefly: Oxygen-induced retinopathy in newborn mice. The class given is in vivo, mouse.
Data set [5] has as its system bovine REC. Briefly: REC proliferation assay (MTS). The class given is cell-based. Here is the method:
REC proliferation and survival assays. 96-well plates were coated with various amounts of TN-C or vehicle. 5×10^3 cells were added to each triplicate well in low-serum REC medium with various amounts of growth factors (0.5% FCS incomplete BREC medium containing 10 ng/ml of human IGF-I, FGF-2, VEGF, PlGF and PDGF-BB [R&D Systems Inc., Minneapolis, Minn.]). Cell numbers were determined on days 4–7 using the MTS cell proliferation assay (Promega Corp.) according to manufacturer's instructions. Survival was measured in the same way using high glucose (30 mM) or chemical hypoxia (2 mM sodium azide) or serum-free medium to induce cell death. Cell numbers were determined on days 4–7 using MTS assay (Promega).

Data set [6] concerns secondary sprouting colonies. The data set can be described thus: Marker expression in secondary sprouting colonies (RT-PCR, immunofluorescence). The data set is classed as cell-based. The settings on record: treatment of secondary sprouting colonies. Here is the method:
Detection of markers expressed by cells selected from secondary sprouting colonies was carried out using reverse-transcriptase polymerase chain reaction (RT-PCR) with RNA derived from secondary sprouting cells, which was compared to RNA derived from non-sprouting cells. The RT-PCR method allows the detection of low-levels of message coding for the above-mentioned markers. Following manufacturer's instructions, RNA isolation was done with a QiaShredder kit (Qiagen) on isolated sprouts (scooped out of MATRIGEL™ biological cell culture substrate) followed by use of the RNAeasy kit (Qiagen), and the RT-reaction was conducted using a SMART cDNA kit (Clontech) and the RT-PCR protocol, as described in Hamdi et al., Biochem Biophys Res Commun. 295(3):668–72 [Jul. 19, 2002] but using approx. 50 ng of cDNA instead of genomic DNA per PCR reaction. The following primers were used: […]

The next data set concerns telomerase. The data set can be described thus: Telomerase assay (TRAP) in cultured endothelial cells. The data set is classed as cell-based. The source says: Cells in secondary sprouting colonies contained high telomerase activity (FIG. 10, 3rd column) when compared to the parental cells (1st column), as measured by telomerase assay (TRAP; Yang, J., et al., Stem and germline cells are among the only cells in postnatal tissues that continue to express telomerase activity, J. Biol. Chem. 274(37):26141–26148 [1999]; Hsiao, R. et al., Mature endothelial cells express very low levels of telomerase and it's lost during the first five divisions in vitro, Anticancer Res 17:827–832 [1997]; Kolquist, K A et al., Nature Genet 19:182–186 [1998] as reviewed by Chang E et al. J. Invest. Dermatol. 118:752–8. [2002]). This enzyme activity is either very low or absent in aging or differentiated cells, but it is high in precursors. (Armstrong et al., mTert expression correlates with telomerase activity during the differentiation of murine embryonic stem cells. Mech Dev. 2000. 97(1–2):109–116). Telomerase activity is also high in invasive and highly proliferative cancers but not in normal adult cells. (Blasco et al., Telomeres and telomerase. Genes & Development. 1999. 13:2353–2359).

[7] abbreviates: basal and growth factor-stimulated (CK2 blockers), H-7 preliminary, not shown.

With `Cc1cc(O)c2c(c1)C(=O)c1cc(O)cc(O)c1C2=O` [emodin, 3-methyl-1,6,8-trihydroxyanthraquinone], the “effect of kinase inhibitors on secondary sprouting” value with bovine REC [1] (setting [7]) is listed as “potently inhibited”. Besides, in the data set with bovine REC [2] (setting [7]), the “effect of kinase inhibitors on migration” value is recorded as “potently inhibited”. Moreover, the “effect on growth factor-mediated cell migration” value in the data set with bovine REC [2] (four GFs 10 ng/ml each, 7 days, 0.5% serum, emodin 10 μM, DRB 15 μM) was “significant inhibitory effect”. In addition, the solubility in vehicle entry in data set [3] is recorded as “did not ensure emodin solubility”. Further, in the data set on REC (setting [7]), the “effect of kinase inhibitors on tube formation” value is “potently inhibited”. In addition, in data set [4] (intraperitoneal), the “neovascular tufts in fluorescein angiograms vs vehicle control” value is “much less pronounced” and the “retinal vascularization in fluorescein angiograms vs vehicle control” value is reported as “significantly less vascularization”. Further, the “diminution of retinal neovascularization (preretinal nuclei count)” value in data set [4] (two intraperitoneal injections daily, day 11 to 17 after birth, emodin 20–30 μg/g, vs untreated or vehicle) is recorded as 70–75%. The “effect of kinase inhibitors on proliferation” value with bovine REC [5] (setting [7]) is given as “potently inhibited”.
Take “PDGF-BB: platelet derived growth factor (PDGF)-BB, human recombinant or purified angiogenic growth factor”: the “morphology of sprouting colonies after growth factor treatment” value in the data set with bovine REC [1] (10 ng/mL) was “shorter and thicker sprouts”. The “effect of growth factors on secondary sprouting (live cell number)” value with bovine REC [1] (10 ng/mL, 0.5% FCS medium) was “potently stimulated; also recorded: most potent single growth factor; also recorded: potent stimulator; also recorded: dramatic increase; also recorded: greatly enhanced; also recorded: the most potent”. In addition, the “additivity of effect on secondary sprouting with individual growth factors” value with bovine REC [1] (PDGF-BB 1 ng/mL ± VEGF, IGF-I, PlGF or FGF-2 10 ng/mL, added day 3) is “not additive or synergistic; also recorded: not additive”. In addition, the “effect on secondary sprouting when added after tube collapse” value in the data set with bovine REC [1] (growth factor added after the tubes had collapsed (day 3)) is on record as “again increased secondary sprouting”. Besides, in the data set with bovine REC [1] (growth factors, live cells by MTS), the “stimulation of secondary sprouting (fold, on average)” value is recorded as “three-fold”. For the same compound, the “additivity of effect on secondary sprouting with combinations of three growth factors” value in the data set on bovine REC [1] (three growth factors 10 ng/mL each plus fourth factor 0–100 ng/mL, added day 3) is given as “potentiated their responses; also recorded: additive”. In the data set with bovine REC [2] (growth factors 10 ng/mL each), the “effect of growth factors on REC migration” value is “potent stimulator”. For the same compound, the “expression of AC133, CD166, AML-1, uPA, tPA” value in data set [6] is “increased the expression”. Also, the “telomerase activity of differentiated endothelial cells” value with telomerase (differentiative culture conditions (plastic, no MATRIGEL)) is “opposite effect”. The “telomerase activity of sprouting colonies” value in the data set on telomerase (expansive culture conditions (MATRIGEL, low serum medium)) is reported as “increases the activity of telomerase”. Besides, the “effect of growth factors on tube formation” value in the data set with REC (growth factors 10 ng/mL each) is “pro-collapsing factor”. For the same compound, the “effect of growth factors on REC proliferation” value with bovine REC [5] (growth factors 10 ng/mL each) is reported as “potent stimulator”.

These data come from patent US7101707B2, “Secondary sprouting for isolation and expansion of endothelial sprout cells and endothelial precursor cells from a mixed population and for screening substances” (Cedars-Sinai Medical Center, priority 2002, dated 2006).
